Consider two compounds from US11078277B2, “Methods and pharmaceutical compositions for enhancing CD8+ T cell-dependent immune responses in subjects suffering from cancer” (INSERM (INSTITUT NATIONAL DE LA SANTE ET DE LA RECHERCHE …, priority 2016, dated 2021).

Each structure is given as a SMILES string.

In the experiment the test system is Smpd3 expression. Kind of experiment: Smpd3 expression by RT-qPCR in B16K1 melanoma cells incubated with 5-aza or TSA. The experiment is classed as cell-based, murine. On the procedure: A, B16K1 cells expressing (2+) or not (2−) V5-tagged nSMase 2 were analyzed by Western blot using anti-V5 and anti-β-actin antibodies. B, Neutral SMase activity in B16K1 nSMase 2+ (2+) and nSMase 2− (2−) as well as in mock-transfected B16K1 cells. C, Intracellular ceramide levels in B16K1 nSMase 2+(2+) and nSMase 2− (2−) as well as in mock-tranfected B16K1 cells. Data are expressed as the % of values obtained with mock-transfected B16K1 cells. Values are shown as means±sem of 3 independent experiments (B and C). D, In vitro B16K1 cell growth was evaluated in 10% FCS medium (left panel) or 0% FCS medium ([…]). […] Cells were analysed by Western blot using anti-V5 and anti-β-actin antibodies. […] Data are shown as means±sem of 3 independent experiments. (*: p<0.05; **: p<0.01). G, B16K1 melanoma cells were incubated or not with 1 μM of 5 aza-2 deoxycitidine (5-aza) during 72 hours or with 0.1 μM Trichostatine A (TSA) during the last 16 hours. Smpd3 expression was analysed by RT-qPCR. Data are shown as means±sem of 3 independent experiments.
RNA isolation and qRT-PCR. RNA isolation from cells and exosomes was performed by using the Qiagen RNeasy mini kit and Qiagen miRNeasy kit respectively, according to manufacturer's instructions. […]
(In general: Real-time PCR tracks product formation cycle by cycle.)

On to `Nc1ncn([C@@H]2O[C@H](CO)[C@@H](O)[C@H]2O)c(=O)n1` [5-Azacytidine], for which the Smpd3 expression result (1 μM 5-aza during 72 hours) is “not”. Take `CC(/C=C/C(=O)NO)=C\[C@@H](C)C(=O)c1ccc(N(C)C)cc1` [trichostatin A]: where the note is “0.1 μM TSA during the last 16 hours”, the Smpd3 expression result is reported as “greatly enhanced”.
